For this experiment, the target named is TgCDPK1 (Toxoplasma gondii, UniProt Q9BJF5). Kind of experiment: biochemical.
Sequence of TgCDPK1 (Q9BJF5 1-507): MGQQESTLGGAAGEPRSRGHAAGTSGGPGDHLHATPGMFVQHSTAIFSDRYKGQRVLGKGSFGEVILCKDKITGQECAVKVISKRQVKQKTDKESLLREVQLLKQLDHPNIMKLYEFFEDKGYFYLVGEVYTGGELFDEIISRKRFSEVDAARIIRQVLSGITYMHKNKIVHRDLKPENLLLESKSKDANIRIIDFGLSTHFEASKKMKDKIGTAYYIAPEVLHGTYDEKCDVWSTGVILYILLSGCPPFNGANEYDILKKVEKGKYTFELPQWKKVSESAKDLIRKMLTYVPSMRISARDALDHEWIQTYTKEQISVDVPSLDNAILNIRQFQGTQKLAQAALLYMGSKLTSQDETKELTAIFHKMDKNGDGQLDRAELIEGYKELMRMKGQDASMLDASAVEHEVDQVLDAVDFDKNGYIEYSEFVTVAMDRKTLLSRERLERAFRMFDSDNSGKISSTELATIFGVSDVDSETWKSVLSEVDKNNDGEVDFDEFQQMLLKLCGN
Usually IC50 stands for the point on the concentration scale where inhibition reaches its midpoint. `Nc1ncnc2c1c(-c1ccc3cc(OC4CC4)ccc3c1)nn2CC1(CO)COC1` [Example 65, (3-((4-amino-3-(6-cyclopropoxynaphthalen-2-yl)-1H-pyrazolo[3,4-d]pyrimidin-1-yl)methyl)oxetan-3-yl)methanol] came in with an IC50 of 2.9 nM.
In the case of `COC(C)(C)Cn1nc(-c2ccc3cc(OC4CC4)ccc3c2)c2c(N)ncnc21` [Example 66, 3-(6-cyclopropoxynaphthalen-2-yl)-1-(2-methoxy-2-methylpropyl)-1H-pyrazolo[3,4-d]pyrimidin-4-amine] it was 1660 nM; in that of `COC(C)(C)Cn1nc(-c2ccc3nc(OC4CC4)ccc3c2)c2c(N)ncnc21` [Example 67, 3-(2-cyclopropoxyquinolin-6-yl)-1-(2-methoxy-2-methylpropyl)-1H-pyrazolo[3,4-d]pyrimidin-4-amine], 430 nM; in that of `COC(=O)C(C)(C)Cn1nc(-c2ccc3cc(OC4CC4)ccc3c2)c2c(N)ncnc21` [Example 68, methyl 3-(4-amino-3-(6-cyclopropoxynaphthalen-2-yl)-1H-pyrazolo[3,4-d]pyrimidin-1-yl)-2,2-dimethylpropanoate], 9.7 nM.
In the case of `COC(=O)C(C)(C)Cn1nc(-c2ccc3nc(OC4CC4)ccc3c2)c2c(N)ncnc21` [Example 69, methyl 3-(4-amino-3-(2-cyclopropoxyquinolin-6-yl)-1H-pyrazolo[3,4-d]pyrimidin-1-yl)-2,2-dimethylpropanoate] it was 43.2 nM.
With `CCOc1ccc2cc(-c3nn(CC4(O)CCNCC4)c4ncnc(N)c34)ccc2c1` [Example 70, 4-((4-amino-3-(6-ethoxynaphthalen-2-yl)-1H-pyrazolo[3,4-d]pyrimidin-1-yl)methyl)piperidin-4-ol] the figure was 23.3 nM.
In turn, `CCOc1ccc2cc(-c3nn(CC4(O)CCN(C)CC4)c4ncnc(N)c34)ccc2c1` [Example 71, 4-((4-amino-3-(6-ethoxynaphthalen-2-yl)-1H-pyrazolo[3,4-d]pyrimidin-1-yl)methyl)-1-methylpiperidin-4-ol] returned an IC50 of 59.3 nM.
With `COC(=O)COc1ccc2cc(-c3nn(CC4CCN(C)CC4)c4ncnc(N)c34)ccc2c1` [Example 72, methyl 2-((6-(4-amino-1-((1-methylpiperidin-4-yl)methyl)-1H-pyrazolo[3,4-d]pyrimidin-3-yl)naphthalen-2-yl)oxy)acetate] the figure was 49.6 nM.
With `CN1CCC(Cn2nc(-c3ccc4cc(OCC#N)ccc4c3)c3c(N)ncnc32)CC1` [Example 73, 2-((6-(4-amino-1-((1-methylpiperidin-4-yl)methyl)-1H-pyrazolo[3,4-d]pyrimidin-3-yl)naphthalen-2-yl)oxy)acetonitrile] the figure was 73.8 nM; with `CCOc1ccc2cc(-c3nn(CC4(C#N)CCNCC4)c4ncnc(N)c34)ccc2c1` [Example 74, 4-((4-amino-3-(6-ethoxynaphthalen-2-yl)-1H-pyrazolo[3,4-d]pyrimidin-1-yl)methyl)piperidine-4-carbonitrile], 2.7 nM; with `CCOc1ccc2cc(-c3nn(CC4(C#N)CCN(C)CC4)c4ncnc(N)c34)ccc2c1` [Example 75, 4-((4-amino-3-(6-ethoxynaphthalen-2-yl)-1H-pyrazolo[3,4-d]pyrimidin-1-yl)methyl)-1-methylpiperidine-4-carbonitrile], 18.3 nM.
In the case of `CC(C)(Cn1nc(-c2ccc3cc(OC4CC4)ccc3c2)c2c(N)ncnc21)C(=O)O` [Example 76, 3-(4-amino-3-(6-cyclopropoxynaphthalen-2-yl)-1H-pyrazolo[3,4-d]pyrimidin-1-yl)-2,2-dimethylpropanoic acid] it was 19.4 nM; in that of `CC(C)(F)Cn1nc(-c2ccc3cc(OC4CC4)ccc3c2)c2c(N)ncnc21` [Example 77, 3-(6-cyclopropoxynaphthalen-2-yl)-1-(2-fluoro-2-methylpropyl)-1H-pyrazolo[3,4-d]pyrimidin-4-amine], 6.4 nM; in that of `Nc1ncnc2c1c(-c1ccc3cc(OC4CC4)ccc3c1)nn2CC1(O)CCNCC1` [Example 78, 4-((4-amino-3-(6-cyclopropoxynaphthalen-2-yl)-1H-pyrazolo[3,4-d]pyrimidin-1-yl)methyl)piperidin-4-ol], 0.7 nM.
For `CN1CCC(O)(Cn2nc(-c3ccc4cc(OC5CC5)ccc4c3)c3c(N)ncnc32)CC1` [Example 79, 4-((4-amino-3-(6-cyclopropoxynaphthalen-2-yl)-1H-pyrazolo[3,4-d]pyrimidin-1-yl)methyl)-1-methylpiperidin-4-ol], the IC50 stood at 4.5 nM.
Compound `CCOc1ccc2cc(-c3nn(CC4(O)CCN(C)CC4)c4ncnc(N)c34)ccc2n1` [Example 80, 4-((4-amino-3-(2-ethoxyquinolin-6-yl)-1H-pyrazolo[3,4-d]pyrimidin-1-yl)methyl)-1-methylpiperidin-4-ol] came in with a 50% inhibitory concentration (IC50) of 23.1 nM.
With `Nc1ncnc2c1c(-c1ccc3nc(OC4CC4)ccc3c1)nn2CC1(O)CCNCC1` [Example 82, 4-((4-amino-3-(2-cyclopropoxyquinolin-6-yl)-1H-pyrazolo[3,4-d]pyrimidin-1-yl)methyl)piperidin-4-ol] the figure was 0.7 nM; with `CN1CCC(C#N)(Cn2nc(-c3ccc4cc(OC5CC5)ccc4c3)c3c(N)ncnc32)CC1` [Example 83, 4-((4-amino-3-(6-cyclopropoxynaphthalen-2-yl)-1H-pyrazolo[3,4-d]pyrimidin-1-yl)methyl)-1-methylpiperidine-4-carbonitrile], 3.5 nM; with `CCOc1ccc2cc(-c3nn(CC4(O)CCNCC4)c4ncnc(N)c34)ccc2n1` [Example 84, 4-((4-amino-3-(2-ethoxyquinolin-6-yl)-1H-pyrazolo[3,4-d]pyrimidin-1-yl)methyl)piperidin-4-ol], 4 nM.
`CN1CCC(O)(Cn2nc(-c3ccc4nc(OC5CC5)ccc4c3)c3c(N)ncnc32)CC1` [Example 85, 4-((4-amino-3-(2-cyclopropoxyquinolin-6-yl)-1H-pyrazolo[3,4-d]pyrimidin-1-yl)methyl)-1-methylpiperidin-4-ol] had an IC50 of 21 nM.
`CCOc1ccc2cc(-c3nn(CC4(C#N)CCNCC4)c4ncnc(N)c34)ccc2n1` [Example 86, 4-((4-amino-3-(2-ethoxyquinolin-6-yl)-1H-pyrazolo[3,4-d]pyrimidin-1-yl)methyl)piperidine-4-carbonitrile]: it took 1.5 nM to reach half-maximal inhibition (IC50).
In the case of `CCOc1ccc2cc(-c3nn(CC4(C#N)CCN(C)CC4)c4ncnc(N)c34)ccc2n1` [Example 87, 4-((4-amino-3-(2-ethoxyquinolin-6-yl)-1H-pyrazolo[3,4-d]pyrimidin-1-yl)methyl)-1-methylpiperidine-4-carbonitrile] it was 103 nM.
In the case of `CC(C)(O)Cn1nc(-c2ccc3cc(OCC#N)ccc3c2)c2c(N)ncnc21` [Example 88, 2-(6-(4-amino-1-(2-hydroxy-2-methylpropyl)-1H-pyrazolo[3,4-d]pyrimidin-3-yl)naphthalen-2-yloxy)acetonitrile] it was 112 nM; in that of `COC(=O)COc1ccc2cc(-c3nn(CC4CCNCC4)c4ncnc(N)c34)ccc2n1` [Example 89, methyl 2-(6-(4-amino-1-(piperidin-4-ylmethyl)-1H-pyrazolo[3,4-d]pyrimidin-3-yl)quinolin-2-yloxy)acetate], 1440 nM; in that of `Nc1ncnc2c1c(-c1ccc3cc(OC4CC4)ccc3c1)nn2CC1(O)CNC1` [Example 90, 3-((4-amino-3-(6-cyclopropoxynaphthalen-2-yl)-1H-pyrazolo[3,4-d]pyrimidin-1-yl)methyl)azetidin-3-ol], 5.1 nM.
With `CN1CC(O)(Cn2nc(-c3ccc4cc(OC5CC5)ccc4c3)c3c(N)ncnc32)C1` [Example 91, 3-((4-amino-3-(6-cyclopropoxynaphthalen-2-yl)-1H-pyrazolo[3,4-d]pyrimidin-1-yl)methyl)-1-methylazetidin-3-ol] the figure was 3.8 nM; with `CN1CCC(C#N)(Cn2nc(-c3ccc4nc(OC5CC5)ccc4c3)c3c(N)ncnc32)CC1` [Example 92, 4-((4-amino-3-(2-cyclopropoxyquinolin-6-yl)-1H-pyrazolo[3,4-d]pyrimidin-1-yl)methyl)-1-methylpiperidine-4-carbonitrile], 5.5 nM.
In the case of `CCOc1ccc2cc(-c3nn(CC4(O)CNC4)c4ncnc(N)c34)ccc2n1` [Example 93, 3-((4-amino-3-(2-ethoxyquinolin-6-yl)-1H-pyrazolo[3,4-d]pyrimidin-1-yl)methyl)azetidin-3-ol], half-maximal inhibition (IC50) required 2.9 nM.
With `Nc1ncnc2c1c(-c1ccc3cc(OC(F)F)ccc3c1)nn2CC1CCNCC1` [Example 94, 3-(6-(difluoromethoxy)naphthalen-2-yl)-1-(piperidin-4-ylmethyl)-1H-pyrazolo[3,4-d]pyrimidin-4-amine] the figure was 1.9 nM.
With `CN1CCC(Cn2nc(-c3ccc4cc(OC(F)F)ccc4c3)c3c(N)ncnc32)CC1` [Example 95, 3-(6-(difluoromethoxy)naphthalen-2-yl)-1-((1-methylpiperidin-4-yl)methyl)-1H-pyrazolo[3,4-d]pyrimidin-4-amine] the figure was 6.5 nM.
In the case of `CCOc1ccc2cc(-c3nn(CC4(O)CNC4)c4ncnc(N)c34)ccc2c1` [Example 96, 3-((4-amino-3-(6-ethoxynaphthalen-2-yl)-1H-pyrazolo[3,4-d]pyrimidin-1-yl)methyl)azetidin-3-ol] it was 7.8 nM; in that of `CCOc1ccc2cc(-c3nn(CC4(O)CN(C)C4)c4ncnc(N)c34)ccc2c1` [Example 97, 3-((4-amino-3-(6-ethoxynaphthalen-2-yl)-1H-pyrazolo[3,4-d]pyrimidin-1-yl)methyl)-1-methylazetidin-3-ol], 2.6 nM; in that of `Nc1ncnc2c1c(-c1ccc3cc(OC(F)F)ccc3c1)nn2CC1(O)CCNCC1` [Example 98, 4-((4-amino-3-(6-(difluoromethoxy)naphthalen-2-yl)-1H-pyrazolo[3,4-d]pyrimidin-1-yl)methyl)piperidin-4-ol], 7.5 nM.
Compound `CN1CCC(O)(Cn2nc(-c3ccc4cc(OC(F)F)ccc4c3)c3c(N)ncnc32)CC1` [Example 99, 4-((4-amino-3-(6-(difluoromethoxy)naphthalen-2-yl)-1H-pyrazolo[3,4-d]pyrimidin-1-yl)methyl)-1-methylpiperidin-4-ol] yielded an IC50 of 35.8 nM.
